Test results: patent publication US10940139B2, “Compounds that interact with the Ras superfamily for the treatment of cancers, inflammatory diseases, rasopathies, and fibrotic disease” (Shy Therapeutics LLC, priority 2017, dated 2021)

biological target: KRas G12D/Q61H double mutant (Homo sapiens (Human), UniProt P01116, G12D/Q61H); test: Ras GTP binding domain inhibition assay (labeled GTP); settings: 20 μM
Method in brief: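 His-tagged KRas protein (3-10 μg/ml) was captured overnight at 4° C on nickel-coated wells in 50 mM Tris pH 7.5, 1 mM MgCl2, 1 mM DTT. Bound labeled GTP was read by fluorescence after washing.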

Chain of KRas G12D/Q61H double mutant (P01116-2 other isoform, or with tags, fused parts or gaps G12D/Q61H): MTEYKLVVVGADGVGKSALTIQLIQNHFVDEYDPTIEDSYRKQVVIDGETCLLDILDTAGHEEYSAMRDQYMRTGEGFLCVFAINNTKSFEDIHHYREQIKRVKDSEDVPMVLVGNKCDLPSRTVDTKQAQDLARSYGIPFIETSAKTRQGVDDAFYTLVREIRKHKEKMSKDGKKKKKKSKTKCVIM

| SMILES | KRas G12D Q61H % Inh. |
| --- | --- |
| O=C(COc1ccc(F)cc1F)Nc1nnc(-c2ccccn2)[nH]1 [drawing 2459] | C (C = 51-75% inhibition) |

same assay, conditions: 20 μM compound; read-out: % Inhibition at 20 μM KRas G12D Q61H

| SMILES | inhibition at 20 µM |
| --- | --- |
| O=C(Nc1nnc(-c2ccccn2)[nH]1)C(F)(F)c1ccccc1 | 25 to 50% |
| O=C(CCc1ccccc1F)Nc1nnc(-c2ccccn2)[nH]1 | 25 to 50% |
| O=C(Nc1nnc(-c2ccccn2)[nH]1)C1CC(=O)N(C2CCCC2)C1 (centres unmarked) | 25 to 50% |
| Clc1ccccc1-c1nnc(CN2CCCc3ccccc32)o1 | 25 to 50% |
| CC(c1nc(C(C)(C)C)no1)N(C)CC12CC3CC(CC(C3)C1)C2 (centres unmarked) | 25 to 50% |
| O=C1COc2cc(C(=O)Nc3nc(-c4ccccn4)cs3)ccc2N1 | 25 to 50% |
| COCCn1c(SCc2csc(-c3ccccc3)n2)nc2ccccc21 | 25 to 50% |
| CCc1ccc(OCC(=O)Nc2nnc(-c3ccccn3)[nH]2)cc1 | 25 to 50% |
| CCN(CCC(=O)OC)c1nc(-c2ccccn2)nc2c1CCC2 | 25 to 50% |
| O=C(COCC1CC1)Nc1nnc(-c2ccccn2)[nH]1 | 25 to 50% |
| Cc1c(C(=O)Nc2nc(-c3ccccn3)cs2)oc2ccccc12 | 25 to 50% |
| CCCN(CC1CC1)S(=O)(=O)Oc1cccc(C(=O)NCc2ccccc2)c1 | 25 to 50% |
| O=C(c1cc(-c2ccccc2)on1)N(Cc1ccco1)C1CCCC1 | 25 to 50% |

same assay, conditions: 20 μM; read-out: KRas G12D Q61H % Inh.

| inhibition at 20 µM | SMILES |
| --- | --- |
| 51 to 75% | O=C(Nc1nnc(-c2ccccn2)[nH]1)C1COc2ccccc2C1 (centres unmarked) [drawing 2490] |
| 51 to 75% | O=C(Nc1nnc(-c2ccccn2)[nH]1)c1ccc(Oc2ccccc2)nc1 [drawing 2491] |
| 51 to 75% | Cc1noc(C)c1CC(=O)Nc1nnc(-c2ccccn2)[nH]1 [drawing 2492] |
| 51 to 75% | CC(C)(C)c1noc(CCC(=O)Nc2nnc(-c3ccccn3)[nH]2)n1 [drawing 2493] |
| 51 to 75% | O=C(Nc1nnc(-c2ccccn2)[nH]1)C1CC(=O)N(CCc2ccccc2)C1 (centres unmarked) [drawing 2494] |
| 51 to 75% | O=C(Cc1ccccc1)NCCC(=O)Nc1nnc(-c2ccccn2)[nH]1 [drawing 2495] |
| 51 to 75% | CN(CC(=O)Nc1nnc(-c2ccccn2)[nH]1)S(C)(=O)=O [drawing 2496] |
| 51 to 75% | O=C(Cc1cccc(F)c1)Nc1nnc(-c2ccccn2)[nH]1 [drawing 2497] |
| 51 to 75% | O=C(Nc1nnc(-c2ccccn2)[nH]1)c1cccc(NC(=O)C2CCCO2)c1 (centres unmarked) [drawing 2498] |
| 51 to 75% | O=C(CC1CCCC1)NCC(=O)Nc1nnc(-c2ccccn2)[nH]1 [drawing 2500] |
| 51 to 75% | O=C(Nc1nnc(-c2ccccn2)[nH]1)c1ncoc1-c1cccs1 [drawing 2501] |
| 51 to 75% | O=C(Cn1c(=O)oc2ccccc21)Nc1nnc(-c2ccccn2)[nH]1 [drawing 2502] |
| 51 to 75% | CC(C)COC(C)C(=O)Nc1nnc(-c2ccccn2)[nH]1 (centres unmarked) [drawing 2505] |
| 51 to 75% | Cc1ccc(CC(=O)Nc2nnc(-c3ccccn3)[nH]2)cn1 [drawing 2506] |
| 51 to 75% | CCn1nnc2cc(C(=O)Nc3nnc(-c4ccccn4)[nH]3)ccc21 [drawing 2507] |
| 51 to 75% | O=C(Nc1nnc(-c2ccccn2)[nH]1)c1nc(N2CCOCC2)ncc1Cl [drawing 2508] |
| 51 to 75% | O=C(Nc1nnc(-c2ccccn2)[nH]1)C1Cc2ccccc2O1 (centres unmarked) [drawing 2509] |
| 51 to 75% | CC(Oc1ccccc1C#N)C(=O)Nc1nnc(-c2ccccn2)[nH]1 (centres unmarked) [drawing 2510] |
| 51 to 75% | CC(Oc1cccc(C#N)c1)C(=O)Nc1nnc(-c2ccccn2)[nH]1 (centres unmarked) [drawing 2511] |
| 51 to 75% | CC(Oc1ccc(C(=O)Nc2nnc(-c3ccccn3)[nH]2)cn1)c1ccccc1 (centres unmarked) [drawing 2512] |
| 51 to 75% | O=C(Nc1nnc(-c2ccccn2)[nH]1)C1CCCN(c2ncccn2)C1 (centres unmarked) [drawing 2514] |
| 51 to 75% | O=C(Cc1ccc(F)cc1)Nc1nnc(-c2ccccn2)[nH]1 [drawing 2515] |
| 51 to 75% | CC(OCc1ccccc1)C(=O)Nc1nnc(-c2ccccn2)[nH]1 (centres unmarked) [drawing 2516] |
| 51 to 75% | CC(COCc1ccccc1)C(=O)Nc1nnc(-c2ccccn2)[nH]1 (centres unmarked) [drawing 2517] |
| 51 to 75% | O=C(Nc1nnc(-c2ccccn2)[nH]1)C1CCCC(C(F)(F)F)C1 (centres unmarked) [drawing 2518] |
| 51 to 75% | O=C(COCc1ccccc1Cl)Nc1nnc(-c2ccccn2)[nH]1 [drawing 2519] |
| 51 to 75% | O=C(Nc1nnc(-c2ccccn2)[nH]1)C1CC1c1ccc(F)cc1 (centres unmarked) [drawing 2520] |
| 51 to 75% | Cc1ccc(CC(=O)Nc2nnc(-c3ccccn3)[nH]2)s1 [drawing 2521] |
| 51 to 75% | O=C(Nc1nnc(-c2ccccn2)[nH]1)c1ccc(OCC2CC2)cc1 [drawing 2522] |
| 51 to 75% | N#Cc1cccc(OCC(=O)Nc2nnc(-c3ccccn3)[nH]2)c1 [drawing 2523] |

The remaining lines, values behind:

| SMILES | inhibition at 20 µM |
| --- | --- |
| O=C(CCCc1nc2ccccc2s1)Nc1nnc(-c2ccccn2)[nH]1 | 51 to 75% |
| CC(C)N(Cc1nnc(-c2ccc(Cl)cc2Cl)o1)c1ccc(F)cc1 | 25 to 50% |
| N#Cc1ccc(OCC(=O)Nc2nnc(-c3ccccn3)[nH]2)cc1 | 51 to 75% |
| O=C(Cc1ccccc1F)Nc1nnc(-c2ccccn2)[nH]1 | 51 to 75% |
| CC(C(=O)Nc1nnc(-c2ccccn2)[nH]1)n1cnc2ccccc21 (centres unmarked) | 51 to 75% |
| O=C(Nc1nnc(-c2ccccn2)[nH]1)C1CCCN(C(=O)c2cccs2)C1 (centres unmarked) | 51 to 75% |
| CS(=O)(=O)c1cccc(C(=O)Nc2nnc(-c3ccccn3)[nH]2)c1 | 51 to 75% |
| O=C(Nc1nnc(-c2ccccn2)[nH]1)c1csc(-c2ccoc2)n1 | 76 to 100% |
| O=C(c1ccc2c(c1)CCO2)N1CCCc2c(O)nc(-c3ccccn3)nc21 | 1 to 25% |
| O=C(CCc1cnn(-c2ccccc2)c1)Nc1nnc(-c2ccccn2)[nH]1 [drawing 2450] | 51 to 75% |
| CC(C)NC(=O)Nc1cccc(C(=O)Nc2nnc(-c3ccccn3)[nH]2)c1 [drawing 2451] | 51 to 75% |
| O=C(Cc1ccc(-n2cnnn2)cc1)Nc1nnc(-c2ccccn2)[nH]1 [drawing 2452] | 51 to 75% |
| COc1cccc(CCC(=O)Nc2nnc(-c3ccccn3)[nH]2)c1 [drawing 2453] | 51 to 75% |
| COc1ccc(CCC(=O)Nc2nnc(-c3ccccn3)[nH]2)cc1F [drawing 2454] | 51 to 75% |
| O=C(Nc1nnc(-c2ccccn2)[nH]1)c1ccc2c(c1)CCO2 [drawing 2455] | 51 to 75% |
| O=C(Cc1c[nH]c2ccccc12)Nc1nnc(-c2ccccn2)[nH]1 [drawing 2456] | 51 to 75% |
| Cn1cc(C2CC2C(=O)Nc2nnc(-c3ccccn3)[nH]2)cn1 (centres unmarked) [drawing 2457] | 51 to 75% |
| O=C(COc1ccc(F)cc1F)Nc1nnc(-c2ccccn2)[nH]1 [drawing 2458] | 51 to 75% |
| COc1cccc(CC(=O)Nc2nnc(-c3ccccn3)[nH]2)c1 [drawing 2460] | 51 to 75% |
| Cc1ccc(C(=O)Nc2nnc(-c3ccccn3)[nH]2)cc1S(C)(=O)=O [drawing 2461] | 51 to 75% |
| O=C(CCn1ccc2ccccc21)Nc1nnc(-c2ccccn2)[nH]1 [drawing 2462] | 51 to 75% |
| Cc1oc(-c2ccccc2)nc1C(=O)Nc1nnc(-c2ccccn2)[nH]1 [drawing 2463] | 51 to 75% |

| SMILES | inhibition at 20 µM |
| --- | --- |
| Cc1c(C(=O)Nc2nnc(-c3ccccn3)[nH]2)oc2ccccc12 [drawing 2465] | 51 to 75% |
| CC(Oc1ccccc1Cl)C(=O)Nc1nnc(-c2ccccn2)[nH]1 (centres unmarked) [drawing 2467] | 51 to 75% |
| O=C(Nc1nnc(-c2ccccn2)[nH]1)c1ccn(-c2cccc(F)c2)n1 [drawing 2468] | 51 to 75% |
| COc1ccc2c(ccn2CC(=O)Nc2nnc(-c3ccccn3)[nH]2)c1 [drawing 2470] | 51 to 75% |
| O=C(CCc1c[nH]c2ccccc12)Nc1nnc(-c2ccccn2)[nH]1 [drawing 2471] | 51 to 75% |
| Cc1ccc(CC(=O)Nc2nnc(-c3ccccn3)[nH]2)cc1 [drawing 2473] | 51 to 75% |
| Cn1cc(-c2nc(C(=O)Nc3nnc(-c4ccccn4)[nH]3)cs2)cn1 [drawing 2474] | 76 to 100% |
| Cn1ccc(C(=O)Nc2nnc(-c3ccccn3)[nH]2)cc1=O [drawing 2476] | 25 to 50% |
| Cc1c(C(=O)Nc2nnc(-c3ccccn3)[nH]2)oc2c1C(=O)CCC2 [drawing 2477] | 51 to 75% |
| C[C@H](NS(=O)(=O)c1ccccc1F)C(=O)Nc1nnc(-c2ccccn2)[nH]1 [drawing 2478] | 51 to 75% |
| CC(OCC(F)(F)F)C(=O)Nc1nnc(-c2ccccn2)[nH]1 (centres unmarked) [drawing 2479] | 51 to 75% |
| CC(C)c1nc(CC(=O)Nc2nnc(-c3ccccn3)[nH]2)cs1 [drawing 2480] | 51 to 75% |
| O=C(Nc1nnc(-c2ccccn2)[nH]1)c1ccc(CN2C(=O)CCC2=O)cc1 [drawing 2481] | 51 to 75% |
| CC(C)c1noc(CCCC(=O)Nc2nnc(-c3ccccn3)[nH]2)n1 [drawing 2483] | 51 to 75% |
| O=C(CC1C=CCC1)Nc1nnc(-c2ccccn2)[nH]1 (centres unmarked) [drawing 2484] | 51 to 75% |
| COc1ccc(CC(=O)Nc2nnc(-c3ccccn3)[nH]2)cc1 [drawing 2485] | 51 to 75% |
| CC(C)c1noc(CCC(=O)Nc2nnc(-c3ccccn3)[nH]2)n1 [drawing 2486] | 51 to 75% |
| O=C(Cc1cccs1)Nc1nnc(-c2ccccn2)[nH]1 [drawing 2487] | 51 to 75% |
| N#Cc1ccccc1OCC(=O)Nc1nnc(-c2ccccn2)[nH]1 [drawing 2488] | 51 to 75% |
| O=C(Nc1nnc(-c2ccccn2)[nH]1)C1CCCC1 [drawing 2489] | 51 to 75% |
| O=C(CCNC(=O)c1ccco1)Nc1nnc(-c2ccccn2)[nH]1 [drawing 2503] | 51 to 75% |

same assay, conditions: read-out: KRas G12D Q61H IC50

| SMILES | IC50 |
| --- | --- |
| O=C(CCc1c[nH]c2ccccc12)Nc1nnc(-c2ccccn2)[nH]1 [drawing 2471] | < 5 µM |
| CC(Oc1cccc(C#N)c1)C(=O)Nc1nnc(-c2ccccn2)[nH]1 (centres unmarked) [drawing 2511] | < 5 µM |
